This passage reports IC50 results from patent US8809364B2, “Polycyclic aryl substituted triazoles and polycyclic heteroaryl substituted triazoles useful as axl inhibitors” (priority 2007, dated 2014).

In the first test the target is T1, Axl (Homo sapiens, UniProt P30530).
T1 construct: endogenous in cells; host or cells: HeLa cells
T1 sequence (P30530 26-894): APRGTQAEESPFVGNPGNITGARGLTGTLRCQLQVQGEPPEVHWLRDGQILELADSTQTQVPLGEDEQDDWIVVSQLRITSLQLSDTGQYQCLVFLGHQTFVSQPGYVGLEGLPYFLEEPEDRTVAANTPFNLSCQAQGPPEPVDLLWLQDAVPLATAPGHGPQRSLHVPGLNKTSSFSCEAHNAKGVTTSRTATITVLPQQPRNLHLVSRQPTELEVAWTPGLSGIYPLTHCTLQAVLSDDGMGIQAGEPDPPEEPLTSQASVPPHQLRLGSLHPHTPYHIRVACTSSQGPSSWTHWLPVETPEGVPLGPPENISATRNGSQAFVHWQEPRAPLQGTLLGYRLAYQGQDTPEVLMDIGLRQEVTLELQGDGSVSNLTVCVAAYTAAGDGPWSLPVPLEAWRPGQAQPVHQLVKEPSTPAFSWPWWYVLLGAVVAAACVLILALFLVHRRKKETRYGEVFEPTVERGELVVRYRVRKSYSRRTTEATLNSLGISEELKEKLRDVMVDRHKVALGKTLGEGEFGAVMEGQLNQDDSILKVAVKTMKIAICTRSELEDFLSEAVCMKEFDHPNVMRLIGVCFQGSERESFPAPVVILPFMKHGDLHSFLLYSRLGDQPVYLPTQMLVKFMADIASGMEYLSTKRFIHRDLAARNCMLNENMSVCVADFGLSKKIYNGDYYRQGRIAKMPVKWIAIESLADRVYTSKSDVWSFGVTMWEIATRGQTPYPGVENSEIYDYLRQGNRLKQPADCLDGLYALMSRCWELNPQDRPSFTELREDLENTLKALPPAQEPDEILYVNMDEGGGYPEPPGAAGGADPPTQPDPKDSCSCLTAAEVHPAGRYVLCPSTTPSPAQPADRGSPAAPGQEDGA
Description: Phospho-Akt In-Cell Western Assay (inhibition of Axl activity). Particulars: Hela cells, Axl antibody cross-linking stimulation, phospho-Akt chemiluminescence normalized to cell number; compound of formula (Ib), Table 2. The test is classed as cell-based. The method, then: The compounds of the invention were tested in the following assay for their ability to inhibit Axl activity.
Phospho-Akt In-Cell Western Assay
• Cell culture plate: 96 well assay plate (Corning 3610), white, clear bottom, tissue-culture treated. • Cells: Hela cells. • Starvation medium: For Axl stimulation: 0.5% FCS (fetal calf serum) in DMEM, plus Axl/Fc (extracellular domain of AXL fused to immunoglobulin Fc region) (R&D, 154-AL) 500 ng/mL. • For EGF (epidermal growth factor) stimulation: 0.5% FCS in DMEM (Dulbecco's modified Eagles medium). • Poly-L-Lysine 0.01% solution (the working solution): 10 μg/ml, dilute In PBS (phosphate buffered saline). • Axl antibody cross-linking: • 1st: Mouse anti-Axl (R&D, MAB154). • 2nd: Biotin-SP-conjugated AffiniPure goat anti-mouse IgG (H+L) (Jackson ImmunoResearch #115-065-003). • Fixing buffer: 4% formaldehyde in PBS. • Wash buffer: 0.1% TritonX-100 in PBS. • Quenching buffer: 3% H2O2, 0.1% Azide in wash buffer, Azide and hydrogen peroxide (H2O2) are added fresh. • Blocking buffer: 5% BSA in TBST (tris buffered saline plus 0.1% Tween 20). • Primary antibody: Rabbit anti-human Phospho-Akt antibody (Cell Signaling 9271): 1×250 diluted in blocking buffer. • Secondary antibody: HRP (horse radish peroxidase)-conjugated Goat anti-Rabbit secondary, stock solution: Jackson ImmunoResearch (Goat anti-Rabbit HRP, #111-035-144) 1:1 diluted in glycerol, store at −20° C. The working solution: 1×2000 dilution of stock in blocking buffer. • Chemiluminescent working solution (Pierce, 37030): SuperSignal ELISA (enzyme linked immunosorbant assay) Pico Chemiluminescent substrate. • Crystal Violet solution: Stock: 2.5% Crystal violet in methanol, filtered and kept at ambient temperature. The working solution: dilute the stock 1:20 with PBS immediately before use. • 10% SDS: working solution: 5% SDS (sodium dodecylsulfate), diluted in PBS Methods: Day 1:
A 96 well TC (tissue culture treated) plate was coated with 10 μg/mL poly-L-Lysine at 37° C. for 30 min, washed twice with PBS, and air-dried for 5 minutes before cells were added. Hela cells were seeded at 10,000 cells/well and the cells were starved in 100 μL starvation medium containing Axl/Fc for 24 hrs.
The cells were pre-treated with test compounds by adding 100 μL of 2× test compound to the starvation medium on the cells. The cells were incubated at 37° C. for 1 hr before stimulation.
The cells were stimulated by Axl-antibody cross-linking as follows: A 5×1^St/2nd Axl antibody mixture was made (37.5 μg/mL 1st/100 μg/mL 2nd) in starvation medium and nutated at 4° C. with thorough mixing for 1-2 hours for clustering. The resulting mix was warmed to 37° C. 50 μL of 5×Axl 1st/2nd of antibody cluster was added to the cells and the cells were incubated at 37° C. for 5 min.
After 5 minutes stimulation, the plate was flicked to remove medium and the plate was tapped onto paper towels. Formaldehyde (4.0% in PBS, 100 μL) was added to fix the cells and the cells were incubated at ambient temperature for 20 min without shaking.
The cells were washed with a plate washer buffer to remove the formaldehyde solution. The plate was flicked to removed excess wash buffer and tapped onto paper towels. Quenching buffer (100 μL) was added to each well and the cells were incubated at ambient temperature for 20 minutes without shaking.
The cells were washed with a plate washer buffer to remove the quenching buffer. Blocking buffer (100 μL) was added and the cells were incubated at ambient temperature for at least an hour with gentle shaking.
The cells were washed with a plate washer buffer and diluted primary antibody (50 μL) was added to each well (blocking buffer was added to the negative control wells instead). The plates were incubated overnight at 4° C. with gentle shaking.
The wash buffer was removed, diluted secondary antibody (100 μL) was added, and the cells were incubated at ambient temperature for 1 hour with gentle shaking. […]
For orientation: IC50 means the midpoint of a concentration-inhibition curve. Low readings indicate greater potency in that assay, high ones weaker potency in that assay. Regarding `Nc1nc(Nc2ccc3c(c2)C(=O)NCCCC3)n(-c2cc3c(nn2)-c2ccccc2CCC3)n1` [Compound 15, 1-(6,7-dihydro-5H-benzo[6,7]cyclohepta[1,2-c]pyridazin-3-yl)-N^5-(1(2H)-oxo-3,4,5,6-tetrahydrobenzo[c]azocin-9-yl)-1H-1,2,4-triazole-3,5-diamine], the concentration for half-maximal inhibition (IC50) was 1000 to 10000 nM.

The test is the same for the next values; noted with them: Hela cells, Axl antibody cross-linking stimulation, phospho-Akt chemiluminescence normalized to cell number; compounds of formula (Ia), Table 1.
For the molecule `CON=C1CCCc2ncc(Nc3nc(N)n(-c4cc5c(nn4)-c4ccccc4CCC5)n3)cc2CC1` (racemic) [Compound 8, 1-(6,7-dihydro-5H-benzo[6,7]cyclohepta[1,2-c]pyridazin-3-yl)-N^3-(7-(methoxyimino)-5,6,7,8,9,10-hexahydrocycloocta[b]pyridin-3-yl)-1H-1,2,4-triazole-3,5-diamine], the half-inhibitory concentration (IC50) lay within 1000 to 10000 nM.

For the molecule `Nc1nc(Nc2ccc3c(c2)CCC(=O)NCC3)nn1-c1cc2c(nn1)-c1ccccc1CCC2` [Compound 1, 1-(6,7-dihydro-5H-benzo[6,7]cyclohepta[1,2-c]pyridazin-3-yl)-N^3-(4(1H)-oxo-2,3,5,6-tetrahydrobenzo[d]azocin-8-yl)-1H-1,2,4-triazole-3,5-diamine], the IC50 is under 1000 nM.

As to `Nc1nc(Nc2ccc3c(c2)CCCN(C2CCCC2)CC3)nn1-c1cc2c(nn1)-c1ccccc1CCC2` [Compound 2, 1-(6,7-dihydro-5H-benzo[6,7]cyclohepta[1,2-c]pyridazin-3-yl)-N^3-(3-cyclopentyl-1,2,3,4,5,6-hexahydrobenzo[d]azocin-8-yl)-1H-1,2,4-triazole-3,5-diamine], the concentration for half-maximal inhibition (IC50) was in the range of 1000 to 10000 nM.

With `Nc1nc(Nc2ccc3c(c2)CCN(C2CCCC2)CCC3)nn1-c1cc2c(nn1)-c1ccccc1CCC2` [Compound 3, 1-(6,7-dihydro-5H-benzo[6,7]cyclohepta[1,2-c]pyridazin-3-yl)-N^3-(3-cyclopentyl-1,2,3,4,5,6-hexahydrobenzo[d]azocin-9-yl)-1H-1,2,4-triazole-3,5-diamine], the concentration for half-maximal inhibition (IC50) was under 1000 nM.

The molecule `Nc1nc(Nc2ccc3c(c2)CC2CCC(C3)C2N2CCCC2)nn1-c1cc2c(nn1)-c1ccccc1CCC2` (centres unmarked) [Compound 4, 1-(6,7-dihydro-5H-benzo[6,7]cyclohepta[1,2-c]pyridazin-3-yl)-N^3-(7-pyrrolidin-1-yl-6,8-ethano-6,7,8,9-tetrahydro-5H-benzo[7]annulene-3-yl)-1H-1,2,4-triazole-3,5-diamine] returned an IC50 of under 1000 nM.

`Nc1nc(Nc2ccc3c(c2)CC(N2CCCC2)CCCC3)nn1-c1cc2c(nn1)-c1ccccc1CCC2` (centres unmarked) [Compound 5, 1-(6,7-dihydro-5H-benzo[6,7]cyclohepta[1,2-c]pyridazin-3-yl)-N^3-(6-pyrrolidin-1-yl-5,6,7,8,9,10-hexahydrobenzo[8]annulene-3-yl)-1H-1,2,4-triazole-3,5-diamine] came in with an IC50 of 1000 to 10000 nM.

In turn, `Nc1nc(Nc2cnc3c(c2)CCC(=O)CCC3)nn1-c1cc2c(nn1)-c1ccccc1CCC2` [Compound 6, 1-(6,7-dihydro-5H-benzo[6,7]cyclohepta[1,2-c]pyridazin-3-yl)-N^3-(7-oxo-5,6,8,9,10-pentahydrocycloocta[b]pyridin-3-yl)-1H-1,2,4-triazole-3,5-diamine] had a half-maximal inhibitory concentration (IC50) of under 1000 nM.

Regarding `Nc1nc(Nc2cnc3c(c2)CCC(N2CCCC2)CCC3)nn1-c1cc2c(nn1)-c1ccccc1CCC2` (centres unmarked) [Compound 7, 1-(6,7-dihydro-5H-benzo[6,7]cyclohepta[1,2-c]pyridazin-3-yl)-N^3-(7-(pyrrolidin-1-yl)-5,6,7,8,9,10-hexahydrocycloocta[b]pyridin-3-yl)-1H-1,2,4-triazole-3,5-diamine], the IC50 was under 1000 nM.

`Nc1nc(Nc2cnc3c(c2)CCC(O)CCC3)nn1-c1cc2c(nn1)-c1ccccc1CCC2` (centres unmarked) [Compound 9, 1-(6,7-dihydro-5H-benzo[6,7]cyclohepta[1,2-c]pyridazin-3-yl)-N^3-(7-hydroxy-5,6,7,8,9,10-hexahydrocycloocta[b]pyridin-3-yl)-1H-1,2,4-triazole-3,5-diamine] displayed an IC50 of 1000 to 10000 nM.

For `Nc1nc(Nc2cnc3c(c2)CCC(=O)CCC3)nn1-c1cc(-c2ccncc2)c2c(n1)C1CCN2CC1` [Compound 10, 1-(1,4-ethano-8-pyridin-4-yl-1,2,3,4-tetrahydro-1,5-naphthyridin-6-yl)-N^3-(7-oxo-5,6,7,8,9,10-hexahydrocycloocta[b]pyridin-3-yl)-1H-1,2,4-triazole-3,5-diamine], the half-maximal inhibitory concentration (IC50) was under 1000 nM.

In turn, `Nc1nc(Nc2ccc3c(c2)C(=O)NCCCC3)nn1-c1cc2c(nn1)-c1ccccc1CCC2` [Compound 11, 1-(6,7-dihydro-5H-benzo[6,7]cyclohepta[1,2-c]pyridazin-3-yl)-N^3-(1(2H)-oxo-3,4,5,6-tetrahydrobenzo[c]azocin-9-yl)-1H-1,2,4-triazole-3,5-diamine] registered a half-maximal inhibitory concentration (IC50) of 1000 to 10000 nM.

Turning to `Nc1nc(Nc2ccc3c(c2)CNCCCC3)nn1-c1cc2c(nn1)-c1ccccc1CCC2` [Compound 13, 1-(6,7-dihydro-5H-benzo[6,7]cyclohepta[1,2-c]pyridazin-3-yl)-N^3-(1,2,3,4,5,6-hexahydrobenzo[c]azocin-9-yl)-1H-1,2,4-triazole-3,5-diamine], the IC50 fell in the range of 1000 to 10000 nM.

For the molecule `Nc1nc(Nc2ccc3c(c2)CCC2(CC3)OCCO2)nn1-c1ncnc2c1CCCCCC2` [Compound 14, 1-(5,6,7,8,9,10-hexahydrocycloocta[d]pyrimidin-4-yl)-N^3-(5,6,8,9-tetrahydrospiro[benzo[7]annulene-7,2′-[1,3]dioxolane]-3-yl)-1H-1,2,4-triazole-3,5-diamine], the IC50 lay within 1000 to 10000 nM.
